According to patent US11103460B2 (priority 2017, dated 2021):

Assays:
[1] = human, in vivo, iv; cited from earlier work

Row | Compound | in vivo release behaviour (fluorescence in urine) | patients experiencing bone marrow toxicity resulting in neutropenia [1]
1 | O=C([O-])c1ccccc1-c1c2ccc(=O)cc-2oc2cc([O-])ccc12.[Na+].[Na+] [sodium fluorescein, Sodium fluorescein] | long-term constant release | –
2 | Nc1nc(O)c2ncn(COC(CO)CO)c2n1 [Ganciclovir] | – | 30-50%
